Our source for the concentration and median survival values is patent publication US20260297060A1, “COMPOUNDS FOR THE DEGRADATION OF MUTANT BRAF” (C4 THERAPEUTICS, INC., priority 2023, published 2026).

Where two headings read alike, the source gives them in different places.

The nature of data set [1]: Example 7 pharmacokinetics assay for efficacy study (plasma, liver). To be noted: mouse, po, 100 mg/kg, p.o., QD × 14 days. Format: in vivo, BALB/c nude mice. Here is the method: For efficacy study, agents were tested in the A375 human melanoma xenografts. Compound 118, Compound 156, and Compound 180 were administered to BALB/c nude mice bearing A375 xenografts from day 0 and dosed p.o. twice per day (BID). Compound 141 was administered from day 0 and dosed p.o. twice per day (BID) or dosed p.o. daily (QD) from day 1. Compound 141, Compound 118, Compound 156, and Compound 180 were dosed at 10 mg/kg for 14 days. The known BRAF inhibitor Dabrafenib was used as a positive control. Dabrafenib was administered from day 1 and dosed p.o. daily (QD) for 14 days and dosed at 100 mg/kg.
The plasma samples were collected at predetermined time points for PK analysis. The mice were euthanized at predetermined time points post the treatment. The blood samples were collected into the 1.5 mL Eppendorf tubes containing 15 μL of 0.5 M EDTA-K2. And then the anticoagulant blood samples were centrifuged at 2,500 g at 4° C. for 15 minutes. The plasma samples were separated into 2 aliquots. The 1st was used for PK analysis, and the 2nd served as backup. The samples were stored at −80° C. before bioanalysis.
Liver samples were collected at predetermined time points for PK analysis. The left lobe of the liver was dissected out and split into 2 parts. The 1st part was used for PK analysis and the 2nd part served as the backup for the study. The samples were transferred into pre-labeled tubes and quickly froze in liquid nitrogen within 2 minutes after dissection. The samples were stored at −80° C. before bioanalysis.
The harvested plasma and liver samples were processed for pharmacokinetics analysis by LC-MS/MS with a concentration range of 0.500~500 ng/mL for Dabrafenib in plasma and liver homogenate, 20.0~20,000 ng/mL for Compound 141, Compound 180 and Compound 118 in plasma and liver, 10.0~10,000 ng/mL for Compound 156 in plasma and liver.

Data set [2] relates to A375 human melanoma cancer cell derived xenografts, intracranial. Briefly: Example 12 efficacy study, intracranial A375-luciferase CNS model: survival. The format is in vivo, BALB/c nude mice. Particulars: 35 mg/kg PO/QD; vehicle median 18 days. Here is the method: For the efficacy study, agents were tested in A375 human melanoma cancer cell derived xenografts (CDX). This cell line was isolated from the primary melanoma of a person and is known to have a homozygous BRAF V600E mutation. The A375 tumor cells were maintained in vitro in DMEM medium supplemented with 10% fetal bovine serum and 1% Penicillin-Streptomycin at 37° C. in an atmosphere of 5% CO2 in air. The tumor cells were routinely subcultured twice weekly. The cells growing in an exponential growth phase were harvested and counted for tumor inoculation.
For this CNS study, A375 cells with a luciferase tag for tracking tumor cell signal, were injected intracranially into 6-8-week-old female BALB/c nude mice (Zhejiang Vital River Laboratory Animal Co., LTD. Beijing, China). The mice were anaesthetized, restrained, and sterilized prior to surgery. A sagittal cut was made above the anterior parietal and occipital bone with sterilized scalpel, the skull was unrevealed and cleaned with cotton bud, in this case the anterior fontanel could be available. A 2 mm hole was created to the right of the anterior fontanel and 0.5 mm ahead of the coronal on the skull with a cranial drill. Cell suspensions in 20% Matrigel were mixed and aspirated into injector carefully to avoid bubbles and wiped to avoid extracranial tumor genesis. The needle was inserted vertically into the cranial hole and the cell mixture was slowly injected for 2 minutes and held for another minute to decrease the drainage of the cell suspension. The wound was closed, and a subcutaneous injection of 5 mg/kg Meloxicam was given to relieve the pain and continued for 3 days. The mice were monitored closely until they woke up after the surgery. During the study, the care and use of animals was conducted in accordance with the regulations of the Association for Assessment and Accreditation of Laboratory Animal Care (AAALAC). After inoculation, the animals were checked daily for morbidity and mortality. At the time of routine monitoring, the animals would be checked for any effects of tumor growth and treatments on normal behavior such as mobility, food and water consumption, body weight gain/loss, eye/hair matting, and any other abnormal effect.
The administration of the test agents began three days after inoculation. CNS tumor-bearing mice were randomly assigned to groups of 8 mice and administered Compound 26 at 10 mg/kg orally (PO) twice a day (BID), Compound 141 at 10 mg/kg PO/BID, encorafenib at 35 mg/kg once a day orally, (PO/QD), or the vehicle alone PO/BID. Measurements for the presence of the A375 luciferase (CRL-1619-LUC2, ATCC, Manassas, VA, USA) cells within the CNS were done with IVIS Lumina III machine. Images were collected twice weekly to follow the growth of the models. The tumor-bearing mice were weighed and intraperitoneally administered luciferin (Perkin Elmer Inc-122799) at a dosage of 150 mg/kg. After 10 min, mice were pre-anesthetized with the mixture gas of oxygen and isoflurane. The bioluminescence value at 15 min post luciferin injection was recorded as the final value and plotted. The endpoint for individual mice was reached when the mouse body weight decreased by 20% when compared to their starting weight.

Consider `CC(C)(C)c1nc(-c2cccc(NS(=O)(=O)c3c(F)cccc3F)c2F)c(-c2ccnc(N)n2)s1` [Dabrafenib, dabrafenib, reference compound], for which the concentration at 6 h in data set [1] (liver, read-out: Concentration in Liver (mean ± SEM)) was determined as 195 ± 32.1 ng/g; in data set [1] (plasma, read-out: Concentration in Plasma (mean ± SEM)), 80.5 ± 17.3 ng/mL.
The compound `COC(=O)N[C@@H](C)CNc1nccc(-c2cn(C(C)C)nc2-c2cc(Cl)cc(NS(C)(=O)=O)c2F)n1` [Encorafenib, encorafenib, reference compound] displayed a median survival in data set [2] of 46 days.
